Laboratory results from patent EP4592286A1, “MACROCYCLIC NITROGEN-CONTAINING CROWN ETHER COMPOUND AND USE THEREOF AS PROTEIN KINASE INHIBITOR” (Artivila Biopharma, priority 2022, dated 2024).

Columns and labels:
[1] = target: T1, endogenous phosphorylated LRRK2 (S935) (Homo sapiens, UniProt Q5S007); test: detection of endogenous phosphorylated LRRK2 (S935) in A549 cells (Western blot); assay type: cell-based; details: 15 hours; for inhibition at 2 µM / inhibition at 1 µM: LRRK2 (S935) activity in A549 cells, read-out: Inhibition rate; for IC50: A549 cells, Table 11, read-out: IC50 of inhibitory activity on LRRK2 (S935) activity in A549 cells (column head: Inhibition rate)
T1 construct: Detection of endogenous phosphorylated LRRK2 (S935) in A549 cells; endogenous in cells; host or cells: A549
T1 sequence (Q5S007 whole entry): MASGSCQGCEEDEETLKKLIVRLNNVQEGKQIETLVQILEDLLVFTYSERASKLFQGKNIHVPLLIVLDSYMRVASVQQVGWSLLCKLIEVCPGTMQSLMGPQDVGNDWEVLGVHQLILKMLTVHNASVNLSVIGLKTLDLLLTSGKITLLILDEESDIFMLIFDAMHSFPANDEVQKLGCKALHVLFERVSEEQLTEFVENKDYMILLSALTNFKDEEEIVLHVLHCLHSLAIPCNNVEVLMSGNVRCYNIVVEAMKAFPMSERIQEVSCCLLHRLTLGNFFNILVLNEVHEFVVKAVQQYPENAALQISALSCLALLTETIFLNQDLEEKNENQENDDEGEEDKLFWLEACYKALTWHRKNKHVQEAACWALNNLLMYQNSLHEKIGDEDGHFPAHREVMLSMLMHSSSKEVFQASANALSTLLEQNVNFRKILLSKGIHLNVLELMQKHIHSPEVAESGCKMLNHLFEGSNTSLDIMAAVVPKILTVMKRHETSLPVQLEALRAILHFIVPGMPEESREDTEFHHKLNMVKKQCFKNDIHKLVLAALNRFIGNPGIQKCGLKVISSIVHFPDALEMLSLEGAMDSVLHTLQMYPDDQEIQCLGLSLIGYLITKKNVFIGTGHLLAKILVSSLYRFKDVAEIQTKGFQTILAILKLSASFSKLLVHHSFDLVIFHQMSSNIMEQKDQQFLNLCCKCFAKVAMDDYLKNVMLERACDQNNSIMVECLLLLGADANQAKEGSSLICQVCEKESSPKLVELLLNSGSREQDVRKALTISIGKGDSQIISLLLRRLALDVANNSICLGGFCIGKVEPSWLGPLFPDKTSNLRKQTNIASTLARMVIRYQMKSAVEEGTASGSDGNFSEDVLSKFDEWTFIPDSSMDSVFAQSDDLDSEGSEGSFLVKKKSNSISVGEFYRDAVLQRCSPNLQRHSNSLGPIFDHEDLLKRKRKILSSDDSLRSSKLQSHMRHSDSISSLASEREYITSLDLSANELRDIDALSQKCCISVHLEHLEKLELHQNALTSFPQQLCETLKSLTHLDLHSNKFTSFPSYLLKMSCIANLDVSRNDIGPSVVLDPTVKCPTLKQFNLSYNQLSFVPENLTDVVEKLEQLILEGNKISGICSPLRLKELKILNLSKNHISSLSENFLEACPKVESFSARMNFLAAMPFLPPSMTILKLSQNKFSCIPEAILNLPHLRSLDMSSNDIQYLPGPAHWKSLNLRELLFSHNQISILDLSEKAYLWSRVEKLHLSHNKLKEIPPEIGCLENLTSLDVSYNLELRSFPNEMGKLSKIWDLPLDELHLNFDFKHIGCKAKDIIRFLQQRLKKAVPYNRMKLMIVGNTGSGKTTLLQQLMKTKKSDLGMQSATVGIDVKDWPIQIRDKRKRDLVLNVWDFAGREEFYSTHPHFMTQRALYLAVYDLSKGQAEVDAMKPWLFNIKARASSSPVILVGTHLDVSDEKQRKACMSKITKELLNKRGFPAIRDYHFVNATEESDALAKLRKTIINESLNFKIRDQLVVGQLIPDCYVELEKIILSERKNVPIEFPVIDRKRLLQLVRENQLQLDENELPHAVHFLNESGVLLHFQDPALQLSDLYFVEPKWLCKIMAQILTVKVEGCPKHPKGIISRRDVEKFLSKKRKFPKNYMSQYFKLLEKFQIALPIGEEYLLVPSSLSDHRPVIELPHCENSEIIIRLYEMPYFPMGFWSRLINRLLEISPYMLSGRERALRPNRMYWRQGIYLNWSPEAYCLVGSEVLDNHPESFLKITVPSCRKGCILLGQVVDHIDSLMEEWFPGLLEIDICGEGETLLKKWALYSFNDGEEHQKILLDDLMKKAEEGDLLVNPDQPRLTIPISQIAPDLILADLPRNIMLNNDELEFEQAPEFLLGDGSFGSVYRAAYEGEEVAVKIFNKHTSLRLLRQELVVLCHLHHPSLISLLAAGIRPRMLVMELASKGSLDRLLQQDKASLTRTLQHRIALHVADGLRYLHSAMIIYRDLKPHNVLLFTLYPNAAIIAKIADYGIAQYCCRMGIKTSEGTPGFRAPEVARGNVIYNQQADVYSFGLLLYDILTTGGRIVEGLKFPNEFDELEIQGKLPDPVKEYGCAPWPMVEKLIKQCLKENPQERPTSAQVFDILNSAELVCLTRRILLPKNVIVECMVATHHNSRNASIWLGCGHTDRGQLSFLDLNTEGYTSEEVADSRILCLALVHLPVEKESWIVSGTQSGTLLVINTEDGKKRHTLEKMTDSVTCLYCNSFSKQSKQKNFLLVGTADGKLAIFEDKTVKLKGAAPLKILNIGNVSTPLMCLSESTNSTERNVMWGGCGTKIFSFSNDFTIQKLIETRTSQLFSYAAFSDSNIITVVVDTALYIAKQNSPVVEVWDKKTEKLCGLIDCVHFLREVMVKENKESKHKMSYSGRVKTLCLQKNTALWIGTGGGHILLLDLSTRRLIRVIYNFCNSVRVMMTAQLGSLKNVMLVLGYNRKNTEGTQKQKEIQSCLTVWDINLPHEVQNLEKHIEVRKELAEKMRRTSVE
Method: Detection of endogenous phosphorylated LRRK2 (S935) in A549 cells
A549 cells were resuspended in serum-free 1640 medium at a density of 1×10^6 cells/ml, and inoculated into a 6-well plate at 1 ml/well, and cultured at 37°C and 5% CO2 for 6-8 hours. 1 microliter of compound solution in DMSO or DMSO (volume ratio of 0.1%) was added, mixed evenly, and cultivated at 37°C and 5% CO2 for 15 hours. Cells were collected, 50 microliters of RIPA III lysis solution were added to each sample to lyse cells on ice for 15 minutes, centrifuged at 4°C and 13000 rpm for 30 minutes, the supernatant was collected, the protein concentration of cell lysis solution was measured by BCA, and the protein concentrations of all samples were normalized. 5×sample loading buffer were added and kept at 95°C for 10 minutes. The content of phosphorylated S935 of endogenous LRRK2 was detected by Western blot, using antibody against phosphorylated LRRK2 (S935) (Abcam#133450). The signal intensity of phosphorylated LRRK2 (S935) was counted by Image J, the signal of phosphorylated LRRK2 (S935) in a sample was normalized by β-actin, and the data was analyzed.

[2] = target: LRRK2 (Homo sapiens, UniProt Q5S007); test: experiment of inhibiting LRRK2 kinase activity (ADP-Glo method); assay type: biochemical; details: Table 4
Chain of LRRK2 (Q5S007 whole entry): as above
Method: The inhibitory effect of the compounds on the activity of LRRK2 kinase was detected by ADP-Glo method. The diluted solutions of the compounds were transfered to a 384-well plate (784075, Greiner), the plate was sealed and centrifuged at a speed of 1000 g for 1 minute. A kinase solution at 2-fold final concentration was prepared with 1×kinase buffer, 2.5 µl of the kinase solution with 2-fold final concentration was added to the wells, the plate was centrifuged at 1000 g for 30 seconds, and left at room temperature for 10 minutes. A mixed solution of ATP and kinase substrate at 2-fold final concentration was prepared with 1×kinase buffer, and 2.5 µL of mixed solution of ATP and substrate at 2-fold final concentration was added to start the reaction. The plate was centrifuged at 1000 g for 30 seconds, sealed and left at room temperature for 2 hours. 4 µL of ADP-Glo reagent was added and incubated at room temperature for 40 minutes; 8 µL kinase detection reagent was added and incubated at room temperature for another 40 minutes. The luminescence signal value was detected on Envision 2104 microplate reader. The conversion inhibition rate%=100-(compound signal value-positive control signal value)/(blank control signal value-positive control signal value)×100.
The IC50 was calculated with GraphPad 6.0 and the dose-responsive curve of the compounds was plotted as follows: y=Bottom+(Top-Bottom)/(1+10^((logic50-x)×hillslope)), where x was logarithm of inhibitor concentration; and y was % inhibition rate.

Row | SMILES | inhibition at 2 µM [1] [%] | inhibition at 1 µM [1] [%] | IC50 [2] [µM] | IC50 [1] [µM]
1 | CN1CCOCCOc2ccc(Nc3ncc(C(F)(F)F)c(NC[C@@H]4CCO4)n3)cc2OCC1 [Example 88, (S)-N^2-(7-methyl-2,3,6,7,8,9-hexahydro-5H-benzo[b][1,4,7]trioxa[10]azacyclododecan-12-yl)-N^4-(oxetan-2-ylmethyl)-5-(trifluoromethyl)pyrimidin-2,4-diamine] | > 80 | – | – | –
2 | CN1CCOc2ccc(Nc3ncc(Cl)c(O[C@H]4CC[C@@](C)(O)CC4)n3)cc2OCC1 [Example 102, (1s,4s)-4-((5-chloro-2-((4-methyl-3,4,5,6-tetrahydro-2H-benzo[b][1,4,7]dioxazolin-9-yl)amino)pyrimidin-4-yl)oxy)-1-methylcyclohexan-1-ol] | – | > 0 | < 0.1 | –
3 | CN1CCOc2ccc(Nc3ncc(C(F)(F)F)c(O[C@H]4CC[C@@](C)(O)CC4)n3)cc2OCC1 [Example 93, (1s,4s)-1-methyl-4-((2-((4-methyl-3,4,5,6-tetrahydro-2H-benzo[b][1,4,7]dioxazolin-9-yl)amino)-5-(trifluoromethyl)pyrimidin-4-yl)oxy)cyclohexan-1-ol] | – | – | < 0.1 | 0.1 to 0.5
4 | CN1CCOc2ccc(Nc3ncc(C(F)(F)F)c(NCC4(C#N)CC4)n3)cc2OCC1 [Example 96, 1-(((2-((4-methyl-3,4,5,6-tetrahydro-2H-benzo[b][1,4,7]dioxazolin-9-yl)amino)-5-(trifluoromethyl)pyrimidin-4-yl)amino)methyl)cyclopropan-1-carbonitrile] | – | > 0 | – | –
5 | COCc1ccccc1Nc1nc(Nc2ccc3c(c2)OCCN(C)CCO3)ncc1C(F)(F)F [Example 94, N^4-(2-(methoxymethyl)phenyl)-N^2-(4-methyl-3,4,5,6-tetrahydro-2H-benzo[b][1,4,7]dioxazolin-9-yl)-5-(trifluoromethyl)pyrimidin-2,4-diamine] | – | > 0 | – | –
6 | CN1CCOc2ccc(Nc3ncc(C(F)(F)F)c(NC[C@@H]4CCO4)n3)cc2OCC1 [Example 92, (S)-N^2-(4-methyl-3,4,5,6-tetrahydro-2H-benzo[b][1,4,7]dioxazolin-9-yl)-N^4-(oxetan-2-ylmethyl)-5-(trifluoromethyl)pyrimidin-2,4-diamine] | 40 to 79 | – | < 0.1 | –
7 | CN1CCOCCOc2ccc(Nc3nc(NCC(C)(C)O)c4cc[nH]c4n3)cc2OCC1 [Example 90, 2-methyl-1-((2-((7-methyl-2,3,6,7,8,9-hexahydro-5H-benzo[b][1,4,7]trioxa[10]azacyclododecan-12-yl)amino)-7H-pyrrolo[2,3-d]pyrimidin-4-yl)amino)propan-2-ol] | > 80 | – | – | –
8 | CN1CCOCCOc2ccc(Nc3ncc(C(F)(F)F)c(NCCS(C)(=O)=O)n3)cc2OCC1 [Example 89, N^2-(7-methyl-2,3,6,7,8,9-hexahydro-5H-benzo[b][1,4,7]trioxa[10]azacyclododecyl-12-yl)-N^4-(2-(methylsulfonyl)ethyl)-5-(trifluoromethyl)pyrimidin-2,4-diamine] | 40 to 79 | – | – | –
9 | CN1CCOc2ccc(Nc3ncc(F)c(O[C@H]4CC[C@@](C)(O)CC4)n3)cc2OCC1 [Example 100, (1s,4s)-4-((5-fluoro-2-((4-methyl-3,4,5,6-tetrahydro-2H-benzo[b][1,4,7]dioxazolin-9-yl)amino)pyrimidin-4-yl)oxy)-1-methylcyclohexan-1-ol] | – | 40 to 79 | 0.1 to 0.5 | –
10 | CN1CCOc2ccc(Nc3ncc(C(F)(F)F)c(Nc4ccccc4)n3)cc2OCC1 [Example 91, N^2-(4-methyl-3,4,5,6-tetrahydro-2H-benzo[b][1,4,7]dioxazolin-9-yl)-N^4-phenyl-5-(trifluoromethyl)pyrimidin-2,4-diamine] | – | – | < 0.1 | < 0.1
11 | CN1CCOc2ccc(Nc3ncc(C(F)(F)F)c(NCC(C)(C)O)n3)cc2OCC1 [Example 8, 2-methyl-1-((2-((4-methyl-3,4,5,6-tetrahydro-2H-benzo[b][1,4,7]dioxazolin-9-yl)amino)-5-(trifluoromethyl)pyrimidin-4-yl)amino)propan-2-ol] | > 80 | – | – | –
12 | Cc1cnc(Nc2ccc3c(c2)OCCN(C)CCO3)nc1O[C@H]1CC[C@@](C)(O)CC1 [Example 101, (1s,4s)-1-methyl-4-((5-methyl-2-((4-methyl-3,4,5,6-tetrahydro-2H-benzo[b][1,4,7]dioxazolin-9-yl)amino)pyrimidin-4-yl)oxy)cyclohexan-1-ol] | – | 40 to 79 | – | –
13 | CN1CCOCCOc2ccc(Nc3ncc(F)c(O[C@H]4CC[C@@](C)(O)CC4)n3)cc2OCC1 [Example 103, (1s,4s)-4-((5-fluoro-2-((7-methyl-2,3,6,7,8,9-hexahydro-5H-benzo[b][1,4,7]trioxa[10]azacyclododecan-12-yl)amino)pyrimidin-4-yl)oxy)-1-methylcyclohexan-1-ol] | – | – | 0.1 to 0.5 | < 0.1
14 | CN1CCOCCOc2ccc(Nc3nc(O[C@H]4CC[C@](C)(O)CC4)c4cc[nH]c4n3)cc2OCC1 [Example 87, (1r,4r)-1-methyl-4-((2-((7-methyl-2,3,6,7,8,9-hexahydro-5H-benzo[b][1,4,7]trioxa [10]azacyclododecan-12-yl)amino)-7H-pyrrolo[2,3-d]pyrimidin-4-yl)oxy)cyclohexan-1-ol] | – | – | < 0.1 | –
